PubChem BioAssay AID1845204 (Molecular Pharmacology Branch, DTP, NCI, 2023)

Tested on: HSSY-II tumor spheroid viability
Assay: Anticancer human tumor HSSY-II cell line growth inhibition;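 also: spheroids exposed to compounds for seven days before reading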;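 as to viability, T/C: percent of DMSO vehicle control viability so 100% = untreated level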
Conditions: spheroids with HUVEC and MSC; for IC50: curve of first compound; for viability, T/C: stronger effect = lower value
In short: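 Complex tumor spheroids combined malignant cells with endothelial cells and mesenchymal stem cells. DNA-damaging drugs and DNA repair inhibitors were tested alone and in combination, at half-log dilutions down from clinical Cmax (top 10 microM if Cmax unknown), 0.25% DMSO final.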

[1] = second compound 0.003 µM, first compound 0.0316 µM
[2] = second compound 0.003 µM, first compound 0.1 µM
[3] = second compound 0.003 µM, first compound 0.316 µM
[4] = second compound 0.003 µM, first compound 1 µM
[5] = second compound 0.003 µM, first compound 3.16 µM
[6] = second compound 0.003 µM, first compound 10 µM
[7] = second compound 0.00949 µM, first compound 0.0316 µM
[8] = second compound 0.00949 µM, first compound 0.1 µM
[9] = second compound 0.00949 µM, first compound 0.316 µM
[10] = second compound 0.00949 µM, first compound 1 µM
[11] = second compound 0.00949 µM, first compound 3.16 µM
[12] = second compound 0.00949 µM, first compound 10 µM
[13] = second compound 0.03 µM, first compound 0.0316 µM
[14] = second compound 0.03 µM, first compound 0.1 µM
[15] = second compound 0.03 µM, first compound 0.316 µM
[16] = second compound 0.03 µM, first compound 1 µM
[17] = second compound 0.03 µM, first compound 3.16 µM
[18] = second compound 0.03 µM, first compound 10 µM
[19] = second compound 0.0949 µM, first compound 0.0316 µM
[20] = second compound 0.0949 µM, first compound 0.1 µM
[21] = second compound 0.0949 µM, first compound 0.316 µM
[22] = second compound 0.0949 µM, first compound 1 µM
[23] = second compound 0.0949 µM, first compound 3.16 µM
[24] = second compound 0.0949 µM, first compound 10 µM
[25] = second compound 0.3 µM, first compound 0.0316 µM
[26] = second compound 0.3 µM, first compound 0.1 µM
[27] = second compound 0.3 µM, first compound 0.316 µM
[28] = second compound 0.3 µM, first compound 1 µM
[29] = second compound 0.3 µM, first compound 3.16 µM
[30] = second compound 0.3 µM, first compound 10 µM

Compound | IC50 (second compound 0.003 µM) [nM] | IC50 (second compound 0.00949 µM) [nM] | IC50 (second compound 0.03 µM) [nM] | IC50 (second compound 0.0949 µM) [nM] | IC50 (second compound 0.3 µM) [nM] | viability, T/C [1] [%] | viability, T/C [2] [%] | viability, T/C [3] [%] | viability, T/C [4] [%] | viability, T/C [5] [%] | viability, T/C [6] [%] | viability, T/C [7] [%] | viability, T/C [8] [%] | viability, T/C [9] [%] | viability, T/C [10] [%] | viability, T/C [11] [%] | viability, T/C [12] [%] | viability, T/C [13] [%] | viability, T/C [14] [%] | viability, T/C [15] [%] | other results
CC1COCCN1c1cc(-c2ccnn2C)c2ccnc(-c3ccn[nH]3)c2n1 (stereo not given) + CC[C@@]1(O)C(=O)OCc2c1cc1n(c2=O)Cc2cc3c(CN(C)C)c(O)ccc3nc2-1 | < 31.6 | < 31.6 | < 31.6 | < 31.6 | < 31.6 | 6.17 | 4.36 | 2.62 | 1.92 | 1.88 | 2.35 | 4.45 | 3.49 | 2.45 | 1.99 | 1.87 | 2.14 | 3.87 | 3.3 | 2.51 | viability, T/C [16]: 1.83%; viability, T/C [17]: 1.68%; viability, T/C [18]: 2.01%; viability, T/C [19]: 3.97%; viability, T/C [20]: 3.08%; viability, T/C [21]: 2.54%; viability, T/C [22]: 1.86%; viability, T/C [23]: 1.59%; viability, T/C [24]: 1.83%; viability, T/C [25]: 3.93%; viability, T/C [26]: 3.43%; viability, T/C [27]: 2.61%; viability, T/C [28]: 1.6%; viability, T/C [29]: 1.43%; viability, T/C [30]: 1.82%
COc1cc(C)[nH]c(=O)c1CN1CCc2c(Cl)cc(C(OC)C3COC3)c(Cl)c2C1=O (stereo not given) + CC[C@@]1(O)C(=O)OCc2c1cc1n(c2=O)Cc2cc3c(CN(C)C)c(O)ccc3nc2-1 | > 10000 | 438 | < 31.6 | < 31.6 | < 31.6 | 85.5 | 83.2 | 69.1 | 63 | 63.7 | 56.1 | 58.4 | 59.4 | 50.4 | 46 | 42.4 | 42.8 | 13.6 | 10.9 | 13.4 | viability, T/C [16]: 13.3%; viability, T/C [17]: 14.6%; viability, T/C [18]: 15.1%; viability, T/C [19]: 9.27%; viability, T/C [20]: 10.6%; viability, T/C [21]: 9.37%; viability, T/C [22]: 11%; viability, T/C [23]: 11.4%; viability, T/C [24]: 13.1%; viability, T/C [25]: 6.06%; viability, T/C [26]: 6.42%; viability, T/C [27]: 6.42%; viability, T/C [28]: 7.59%; viability, T/C [29]: 8.41%; viability, T/C [30]: 8.2%
[2H]c1nc(C)nc([2H])c1-c1cc(NC[C@@H](C)c2cccc3c(C(=O)NC)ccnc23)ncn1 + CC[C@@]1(O)C(=O)OCc2c1cc1n(c2=O)Cc2cc3c(CN(C)C)c(O)ccc3nc2-1 | > 10000 | > 10000 | < 31.6 | < 31.6 | < 31.6 | 89.6 | 93.9 | 90.5 | 96.5 | 87.9 | 78.7 | 62 | 64.5 | 61.5 | 63.9 | 58 | 53.9 | 14.2 | 13.6 | 11.1 | viability, T/C [16]: 13.1%; viability, T/C [17]: 14%; viability, T/C [18]: 16.3%; viability, T/C [19]: 11%; viability, T/C [20]: 11.4%; viability, T/C [21]: 9.48%; viability, T/C [22]: 10.8%; viability, T/C [23]: 11.6%; viability, T/C [24]: 12%; viability, T/C [25]: 6.74%; viability, T/C [26]: 7.54%; viability, T/C [27]: 7.42%; viability, T/C [28]: 6.87%; viability, T/C [29]: 7.23%; viability, T/C [30]: 8.83%
